Conditions: in vivo
Protocol: The primary objectives were to assess iron uptake and ferric maltol pharmacokinetics. Serum iron and TSAT provided measures of iron uptake. In adults, dissociated maltol undergoes rapid glucuronidation and is cleared in urine as maltol glucuronide (36); therefore, in this study, plasma maltol glucuronide was measured to confirm the rate of clearance in children.
Sparse pharmacokinetic blood sampling was performed at baseline before the morning dose and at prespecified collection windows 0.5–6 hours after the morning dose on days 1 and 10, giving 3 to 6 samples per time point. The post-dose pharmacokinetic sample collection windows were 0.5–<1, 1–<2, 2–<3, 3–<4, and 4–<6 hours, with patients assigned to post-dose pharmacokinetic blood sampling schedules in sequential order at randomization. Individuals had the same schedule on days 1 and 10. Plasma maltol glucuronide and serum iron and TSAT were measured at each time point to calculate standard pharmacokinetic parameters.
The observed values for plasma maltol glucuronide and serum iron and TSAT were summarized by dose group and visit for the ITT population, as were changes from baseline in serum iron and TSAT. The ITT population was also used in the population pharmacokinetic analysis. […]

Compound: Cc1occc(=O)c1O[C@@H]1O[C@H](C(=O)O)[C@@H](O)[C@H](O)[C@H]1O [maltol glucuronide]
- Cmax and AUC of maltol glucuronide: dose dependence: dose-dependent

From PMC10191551, “Safety, Tolerability, and Pharmacokinetics of Oral Ferric Maltol in Children With Iron Deficiency: Phase 1 Study” (JPGN Reports, 2021)
